Here are results for seven molecules from patent US8197858B2, “Bone microenvironment modulated seizure treatments” (priority 2009, dated 2012).

In series [1] the test system is tryptophan hydroxylase (TPH). Conditions: estrogen treated monkey; cited from earlier work.
A short description of series [2]: serum estrogen levels and half life with estradiol transdermal patch in postmenopausal women (Ginsburg et al.). The series is classed as in vivo. Particulars: female, human, other: transdermal patch, 0.1 mg, after removal of patch, worked out from mean half life, read-out: terminal half life (converted). From the text:
Exogenous estrogen can be used to inhibit osteoclast activity and bone resorption by the “triple whammy” previously disclosed, inhibiting osteoclast activity by binding to osteoblasts and 1) increasing their output of OPG and 2) suppressing their RANKL production and 3) prolonging the lives of osteoblasts while simultaneously promoting osteoclast apoptosis. […] The dose is low enough and for a short enough period of time that it should not materially interfere with any of the menstrual processes. Alternatively, the patch may also be cut in half to obtain a half dose (0.05 ng/ml) cushion factor. Estrogen is available in oral, injectable, and patch forms from numerous suppliers and include Estrace, Cenestin, Enjuvia, Femtrace, Gynodiol, Menest etc. . . .
SERM/Estradiol: If the patient is on birth control, which is basically 3 weeks of estrogen followed by 1 week of sugar pills, the SERM raloxifene could be substituted for the sugar pills. Alternatively, low levels of estrogen could be substituted for one or more of the sugar pills, with the goal of keeping the serum levels around 0.1 ng/ml, without the sharp transition drop, and without the potential for interfering with progression of menstruation. Alternatively, an estrogen patch may be used. […]

Series [3] relates to serum calcium. Particulars: 7.5 mg/kg, 2 h infusion x3 days; cited from earlier work.
The subject of series [4] is serum calcium. Conditions: injections of 4-8 IU/kg (IM or SubQ), most patients; cited from earlier work.
Series [5] deals with blood calcium levels. Particulars: more potent than human calcitonin; cited from earlier work.
Series [6] concerns patients with PMS. Particulars: double blind study; cited from earlier work.
A short description of series [7]: testosterone levels with Androderm transdermal patch. Conditions: human, in vivo, other: transdermal patch. From the text: When androgens such as testosterone bind to osteoblast receptors, the osteoblast is stimulated to form new bone (i.e. move calcium into bone). […] Accordingly, administration of androgens such as testosterone, or administration of endocrine hormones that upregulate indigenous production of androgens (e.g. in males, luteinizing hormone, gonadotropin/luteinizing hormone releasing hormone), can be used to reduce extracellular calcium levels by moving calcium back into bone. Testosterone USP is natural testosterone that has been approved by the United States Pharmacopoeia and is available as a bulk chemical. Testosterone is well-absorbed from transdermal (topical) creams and gels. Dosage forms also include sublingual drops, buccal or sublingual troches or tablet triturates. […] In the form known as Testosterone Cypionate, testosterone can be administered by intramuscular injection every 1-3 weeks. WatsonPharma's Androderm transdermal 2.5 mg or 5 mg testosterone patch provides a more convenient way to administer testosterone, and provides the ability to administer the testosterone over a desired time frame much more precisely (as will be discussed further in representative examples). Androderm patches can ramp up testosterone levels quickly (e.g. 349 ng/dl within 3 hours, 528 ng/dl within 6 hours, when applied to the back) and can be used for up to 24 hours. […]

estrogen: the “increase in tryptophan hydroxylase (TPH)” value in series [1] is “nine-fold”. As for `C[C@]12CC[C@@H]3c4ccc(O)cc4CC[C@H]3[C@@H]1CC[C@@H]2O` [estradiol], the half-life in series [2] is around 9 h.

Take `CC(O)(P(=O)(O)O)P(=O)(O)O` [etidronate disodium]: the duration of efficacy entry in series [3] is on record as “more than a week”.

Turning to Calcitonin, the “drop in serum calcium levels” value in series [4] was 1 to 2 mg/dL. Consider `CC(C)C[C@H](NC(=O)[C@H](CCCCN)NC(=O)CNC(=O)[C@H](CC(C)C)NC(=O)[C@@H](NC(=O)[C@@H]1CSSC[C@H](N)C(=O)N[C@@H](CO)C(=O)N[C@@H](CC(N)=O)C(=O)N[C@@H](CC(C)C)C(=O)N[C@@H](CO)C(=O)N[C@@H]([C@@H](C)O)C(=O)N1)C(C)C)C(=O)N[C@@H](CO)C(=O)N[C@@H](CCC(N)=O)C(=O)N[C@@H](CCC(=O)O)C(=O)N[C@@H](CC(C)C)C(=O)N[C@@H](Cc1c[nH]cn1)C(=O)N[C@@H](CCCCN)C(=O)N[C@@H](CC(C)C)C(=O)N[C@@H](CCC(N)=O)C(=O)N[C@H](C(=O)N[C@@H](Cc1ccc(O)cc1)C(=O)N1CCC[C@H]1C(=O)N[C@@H](CCCNC(=N)N)C(=O)N[C@H](C(=O)N[C@@H](CC(N)=O)C(=O)N[C@H](C(=O)NCC(=O)N[C@@H](CO)C(=O)NCC(=O)N[C@H](C(=O)N1CCC[C@H]1C(N)=O)[C@@H](C)O)[C@@H](C)O)[C@@H](C)O)[C@@H](C)O` [salmon calcitonin], for which the “potency relative to human calcitonin” value in series [5] is 40-50 times. For `N[C@@H](Cc1cc(I)c(Oc2cc(I)c(O)c(I)c2)c(I)c1)C(=O)O` [levothyroxine], the “benefit over the placebo” value in series [6] was “did not show any benefit over the placebo”. As to `C[C@]12CC[C@H]3[C@@H](CCC4=CC(=O)CC[C@@]43C)[C@@H]1CC[C@@H]2O` [testosterone], the “time to return to baseline levels after removal of the patch” value in series [7] was 3 to 4 h.

One may read the half-life as how long it takes for the measured level to halve.
